The values that follow come from ChEMBL document CHEMBL1201862, “PubChem BioAssay data set” (2004).

Some test systems named below: M14; UACC-62; HL-60; HT-29; UO-31; SW-620; COLO 205; SK-MEL-28; HCC 2998; K562; HOP-62; MOLT-4; NCI-H460; RPMI-8226; RXF 393; UACC-257; KM12; SK-OV-3; NCI-H522; OVCAR-3.
What all share (assay): NCI-60 cell line screen, 48 h

The structures appear in SMILES notation.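 How tested: cells in 96-well plates exposed to compound for 48 hours at five concentrations. GI50 is the concentration that inhibits growth by half.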 Calls of active or inactive are those of the source. No stated cut-off is given here; in the data, active = GI50 up to about 1.1 µM and inactive = higher.

Consider `CCOC(=O)c1c(N)sc2c1C(C(=O)OCC)CCC2` (centres undefined), for which the GI50 in the assay with M14 was > 100 µM (inactive); in the assay on UACC-62, > 100 µM (inactive); in the assay with HL-60 it was 53.3 µM (inactive); with HT-29 it was > 100 µM (inactive); with UO-31, 47.4 µM (inactive); in the assay on SW-620, > 100 µM (inactive). For the same molecule, the GI50 with COLO 205 was > 100 µM (inactive); in the assay on SK-MEL-28, > 100 µM (inactive); in the assay with HCC 2998 it was > 100 µM (inactive); in the assay with K562, 76.6 µM (inactive); with HOP-62 it was > 100 µM (inactive); in the assay with MOLT-4, > 100 µM (inactive). The GI50 in the assay on NCI-H460, with RPMI-8226, with RXF 393, in the assay on UACC-257 and with KM12 was > 100 µM (inactive) each time.

As for `Cc1ccc(NC(=O)C(Cc2c[nH]c3ccccc23)NC(=O)Oc2ccccc2)cc1C` (centres undefined), the GI50 was 74.8 µM (inactive) in the assay with M14; 54.7 µM (inactive) in the assay on UACC-62; > 100 µM (inactive) in the assay with SK-OV-3; 40.6 µM (inactive) with HL-60; 41.3 µM (inactive) in the assay with HT-29; 77.6 µM (inactive) in the assay on UO-31. For the same molecule, the GI50 in the assay with NCI-H522 was > 100 µM (inactive); with SW-620 it was > 100 µM (inactive); in the assay on COLO 205, 50.4 µM (inactive); in the assay on SK-MEL-28, > 100 µM (inactive); with K562 it was 59 µM (inactive); with HOP-62, > 100 µM (inactive). The GI50 was 57.5 µM (inactive) with MOLT-4; 39.4 µM (inactive) in the assay with NCI-H460; 26.7 µM (inactive) in the assay on RPMI-8226; 34.8 µM (inactive) in the assay with OVCAR-3; 25.2 µM (inactive) in the assay with RXF 393; > 100 µM (inactive) in the assay with UACC-257. Besides, the GI50 in the assay on KM12 was 23.8 µM (inactive).

Consider `O=C(O)C1=CNC(C(=O)O)=NN1`, for which the GI50 in the assay with M14, with UACC-62, in the assay with SK-OV-3, in the assay on HL-60, with HT-29 and in the assay with UO-31 was > 100 µM (inactive) in each case. For the same molecule, the GI50 in the assay with NCI-H522, in the assay on SW-620, in the assay on COLO 205, with SK-MEL-28, in the assay on K562 and in the assay with HOP-62 was > 100 µM (inactive) in each case. In addition, the GI50 with MOLT-4, in the assay on NCI-H460, with RPMI-8226, in the assay on OVCAR-3, in the assay with RXF 393 and with UACC-257 was > 100 µM (inactive) each time. Further, the GI50 in the assay with KM12 was > 100 µM (inactive).

With `c1ccc2c(c1)CCCC/C2=N/OCC1CO1` (centres undefined), the GI50 in the assay on HL-60 is 21.4 µM (inactive); in the assay with HT-29 it was 42.1 µM (inactive); with UO-31, < 0.01 µM (active); in the assay on SW-620 it was 63.4 µM (inactive); with COLO 205, 48.8 µM (inactive); in the assay with SK-MEL-28, 61 µM (inactive). Further, the GI50 with HCC 2998 is > 100 µM (inactive); in the assay with K562 it was 41.2 µM (inactive); in the assay with MOLT-4, 32.1 µM (inactive); in the assay with NCI-H460 it was 80.7 µM (inactive); in the assay with RPMI-8226 it was 30.3 µM (inactive); with RXF 393, 53.6 µM (inactive). Further, the GI50 in the assay with UACC-257 was 46.5 µM (inactive); in the assay on KM12, 35.9 µM (inactive).
